Substitutions are numbered along the chain they refer to. Calls of active or inactive are those of the source. The rule behind the calls is not given here.
Tests used:
[1] = test system: T1, Dual specificity protein phosphatase 5 (Homo sapiens), Q16690 [C263S]; experiment: Binding affinity to N-terminal hexa-histidine-tagged and 15N-labeled DUSP5 C263S mutant (unknown origin) expressed in Escherichia coli BL21 (DE3) at 500 uM by 2D 1H-15N HSQC NMR assay
T1 sequence (whole entry): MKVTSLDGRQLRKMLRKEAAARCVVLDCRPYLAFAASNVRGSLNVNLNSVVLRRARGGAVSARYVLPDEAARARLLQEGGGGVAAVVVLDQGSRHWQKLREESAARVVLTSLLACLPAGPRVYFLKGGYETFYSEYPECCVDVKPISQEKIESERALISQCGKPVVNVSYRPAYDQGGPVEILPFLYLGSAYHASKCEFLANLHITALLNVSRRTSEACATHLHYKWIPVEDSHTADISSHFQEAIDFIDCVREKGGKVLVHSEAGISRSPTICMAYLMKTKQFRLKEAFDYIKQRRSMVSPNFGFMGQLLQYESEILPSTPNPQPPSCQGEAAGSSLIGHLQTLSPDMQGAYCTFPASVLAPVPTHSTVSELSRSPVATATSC

[2] = target: T2, Dual specificity protein phosphatase 5 (Homo sapiens) (UniProt Q16690); experiment: Potency index, ratio of IC50 for NTS to IC50 for test compound for inhibition of full length DUSP5 (unknown origin) assessed as reduction in de-phosphorylation of GST-tagged recombinant phosphorylated ERK2 incubated for 15 mins by SDS-PAGE based immunoblot assay
T2 sequence (whole entry): T1 sequence (whole entry) with S263C

[3] = target: T3, Tyrosine-protein phosphatase non-receptor type 1 (Homo sapiens, UniProt P18031); experiment: Inhibition of PTPN1 (unknown origin) using PNPP substrate incubated for 15 mins relative to control
T3 sequence (P18031 whole entry): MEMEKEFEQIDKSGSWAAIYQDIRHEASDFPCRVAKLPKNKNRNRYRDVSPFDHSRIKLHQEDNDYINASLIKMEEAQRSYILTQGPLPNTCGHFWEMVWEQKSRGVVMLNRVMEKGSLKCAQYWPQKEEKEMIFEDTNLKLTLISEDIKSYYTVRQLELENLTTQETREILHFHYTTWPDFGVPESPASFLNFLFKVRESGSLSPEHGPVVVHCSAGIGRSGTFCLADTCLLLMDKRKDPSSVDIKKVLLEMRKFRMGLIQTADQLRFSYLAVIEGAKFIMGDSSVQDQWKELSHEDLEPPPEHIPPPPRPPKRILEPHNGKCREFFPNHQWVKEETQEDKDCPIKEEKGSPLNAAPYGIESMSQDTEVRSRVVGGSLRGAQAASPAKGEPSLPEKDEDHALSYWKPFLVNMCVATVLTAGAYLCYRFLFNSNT

For `O=S(=O)([O-])c1cc(O)c2c(S(=O)(=O)[O-])cccc2c1.[Na+].[Na+]`, the Activity [1] was “Active”, the Ratio IC50 [2] was 1000 and the IC50 [3] was “Not Active”.
